The test system of data set [1] is osteoblasts (monolayer culture). In words: Cell viability (neutral red uptake), monolayer osteoblast cell culture. Format: cell-based, rat. The protocol: (§1) This isolation technique is based on the ability of osteoblasts to migrate from bone onto a substratum. Parietal and frontal calvariae (4 per animal) were aseptically explanted from 6 day-old IcoIbm rats. The calvariae were placed in Tyrode's balanced salt solution, calcium and magnesium free (TESS). The periosteum was enzymatically removed with 0.05% trypsin and 0.02% collagenase A (0.76 U/mg) dissolved in TBSS (40 calvaria/20 ml). The calvariae were shaken for 70 minutes in a waterbath at 37° C. They were washed with TESS and then transferred to 60 mm culture dishes (40 calvariae/dish) containing 5 ml of 0.02% collagenase A (0.76 U/mg) in culture medium BGJb Fitton-Jackson modification and placed in the incubator for 4 hours. The calvariae were then washed with culture medium B supplemented with 10% foetal calf serum (FCS). The calvariae were transferred into 60 mm culture dishes (4 frontal and 4 parietal/dish). The growth medium supplemented with 10% FCS and 50 μg/ml ascorbate was completely changed every 48 hours. The culture was kept for 3 weeks.
After 3 weeks the migrated cells were harvested. The dish was washed with TESS, and 5 ml of TESS containing 0.05% trypsin and 0.02% collagenase A (0.76 U/mg) was added. After 1 hour in the incubator, the dish was washed with culture medium BGJb supplemented with 10% FCS. The dishes containing the calvariae and cells were rinsed with serum containing media BGJb. The cells obtained were filtered through a 40 μm nylon mesh to remove bone debris and cell aggregates. The suspended cells were centrifuged at 600 g for 5 minutes. The cell pellet was resuspended in serum containing medium BGJb and centrifuged. The viability of the resuspended cells was examined by the dye exclusion of 0.4% trypan blue, and the cells were counted in a haeinocytometer. The inoculation densities were 2·10^5/10 cm^2 for monolayer and 2·10^5/30 μl for micromasses. The micromass cultures were kept for 1 hour in the incubator before 2 ml growth medium was added.
All the cultures were kept at 37° C. in a humidified atmosphere of 5% CO2, 95% air. All culture media were supplemented with 50 μg/ml ascorbate. To analyze the collagen types, 60 μg/ml beta-aminopropionitrile (beta-APN) was added to the culture medium. During cell isolation and inoculation, no ascorbate was used to increase plating efficiency. No antibiotics and no beta-glycerophosphate were added. The media were completely changed every 48 hours (60 mm culture dish 5 ml; 35 mm culture dish 2 ml).
The method described in (Lindl et al. 1994) was used.
The uptake of NR into lysosomes is […] the metabolic status of the cell.
0.5 mg Neutral red/ml growth medium, warmed up to 37° C. for at least 2 hours,
50% ethanol in 1% acetic acid
1. The cells were incubated in 2 ml/10 cm^2NR solution at 37° C. for 3 hours.
2. The supernatant was removed,
3. washed with PBS, at least 3 times, until no crystals were present.
4. Addition of 4 ml/10 cm^2 extraction buffer.
5. The absorbance of the supernatant (3 aliquots/dish) was read at 540 nm versus extraction buffer.
6. If the absorbance was higher than 1, the samples were diluted with extraction buffer.
The mean value and the standard deviation consisted of n independent experiments. The values for the individual experiments were gained from the mean of 3 aliquots of the same dish. To compare the treatment, contrasts analysis of variance models were evaluated.

The test system is the same in data set [2]. Put plainly: Alkaline phosphatase activity (histochemically), monolayer osteoblast cell culture. In kind it is cell-based, rat. To be noted: 3 weeks. The protocol:
as §1, with “weeks. After 3 weeks the migrated cells were harvested. The dish was washed with TESS, and 5 ml of TESS containing 0.05% trypsin and 0.02% collagenase A (0.76 U/mg) was added. […] The viability of the resuspended cells was examined by the dye exclusion of 0.4% trypan blue, and the cells were counted in a haeinocytometer. […]” for “weeks.”

Consider `CN(CC(=O)O)C(=N)N` [creatine], for which the “NR uptake (FIG. 1)” value in data set [1] (10 mM and 20 mM creatine vs control, 1 and 2 weeks) is recorded as “no significant difference between the groups”; in data set [1] (10 mM creatine, 3 weeks compared to 1 week, p<0.02), “significantly higher”; in data set [1] (20 mM creatine vs control, 3 weeks, p<0.008), “significantly lowered NR uptake”. The “toxic effect (from NR uptake)” value was “no toxic effect” in data set [1] (10 mM creatine) and “some toxic effects on the proliferation of the cells” in data set [1] (20 mM creatine, 3 weeks). Further, the “NR uptake (FIG. 1), difference to control” value in data set [1] (10 mM creatine vs control, 3 weeks) was “not significant”.
For `N=C(N)NCCC(=O)O` [GPA, beta-guanidinopropionic acid], the “cell density around the nodules” value in data set [2] (GPA groups) was “lower than in the control and the creatine groups”. Also, the “staining pattern for the ALP activity” value in data set [2] (higher magnification, compared with control and creatine groups) is on record as “different staining pattern”.

For the origin of these results see patent US20020039567A1, “Methods of treating bone or cartilage conditions by the administration of creatine” (priority 1998, published 2002).
